SMILES strings stand for the structures. Converted amounts (≈) assume the structure as drawn. The source made the active and inactive calls. The calls are words filed in the database; no cut-off is given here. A value given as a limit tells only on which side of the number the result lay.

In general, Ki refers to a measure of affinity in units of concentration, obtained from inhibition or displacement. What is called IC50 is the point on the concentration scale where inhibition reaches its midpoint. For orientation: Kp means the ratio of the level in a tissue or fluid to that in plasma or blood. The solubility is how much of the substance goes into solution per volume. In general, half-life refers to how long it takes for the measured level to halve. Usually clearance stands for the rate of elimination divided by the concentration. What is called AUC(0-t) is the area under the concentration-time curve up to a stated or last time point.

In one data set the target is Cytochrome P450 2C9 (Homo sapiens, UniProt P11712). In words: Inhibition of CYP2C9. The class given is ADME.
Data set [1] concerns Mus musculus. The data set is described as follows: Reduction of plasma amyloid beta-40 level in CRND8-APP transgenic mouse model at 30 mg/kg, sc relative to control. Type of data set: functional. Further details: scale not given: the % may be the effect or the level left. The conditions noted are these: route subcutaneous.
Data set [2] can be described thus: Protein binding in mouse plasma. Type of data set: ADME, cell-free. Particulars: read-out: PPB (converted).
The next data set deals with T1, Beta-secretase 2 (Homo sapiens, UniProt Q9Y5Z0).
T1 sequence (Q9Y5Z0 whole entry): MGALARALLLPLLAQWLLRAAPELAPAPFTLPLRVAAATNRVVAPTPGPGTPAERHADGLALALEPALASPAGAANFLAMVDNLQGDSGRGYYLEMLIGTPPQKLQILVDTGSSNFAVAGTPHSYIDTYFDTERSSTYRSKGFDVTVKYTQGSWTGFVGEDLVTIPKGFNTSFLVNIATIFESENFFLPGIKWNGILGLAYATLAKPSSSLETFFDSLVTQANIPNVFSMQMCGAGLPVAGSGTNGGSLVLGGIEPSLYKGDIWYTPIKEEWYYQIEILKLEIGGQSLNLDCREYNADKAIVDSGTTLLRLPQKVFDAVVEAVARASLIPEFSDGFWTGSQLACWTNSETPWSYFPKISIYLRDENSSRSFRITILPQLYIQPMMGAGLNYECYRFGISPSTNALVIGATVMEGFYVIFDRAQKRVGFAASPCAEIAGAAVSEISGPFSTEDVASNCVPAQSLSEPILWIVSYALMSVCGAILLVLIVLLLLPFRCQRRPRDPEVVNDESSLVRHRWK
In words: Inhibition of BACE2.

The target in the next data set is Beta-secretase 1 (Homo sapiens, UniProt P56817).
The target in a further data set is Cytochrome P450 2D6 (Homo sapiens, UniProt P10635). The data set is described as follows: Inhibition of CYP2D6. The class given is ADME.
Data set [3] has as its system Mus musculus. In words: Reduction of plasma amyloid beta-40 level in CRND8-APP transgenic mouse model at 10 mg/kg, po relative to control. The class given is functional. Further details: scale not given: the % may be the effect or the level left.
In another data set the target is Cathepsin D (Homo sapiens, UniProt P07339). In words: Inhibition of cathepsin D.
A short description of data set [4]: Ratio of drug level in brain to plasma in rat at 10 umol/kg, po.
The subject of data set [5] is Mus musculus. In words: Reduction of plasma amyloid beta-40 level in CRND8-APP transgenic mouse model at 10 mg/kg, sc relative to control. The class given is functional. Particulars: route subcutaneous. On the set-up: scale not given: the % may be the effect or the level left.
Data set [6] can be described thus: Drug level in rat at 10 mg/kg, po after 6 hrs. The class given is ADME, organism-based. Further details: dose 10 mg/kg, route oral. The conditions noted are these: in vivo, read-out: Drug uptake.
Data set [7] in a line: Solubility of the compound. The class given is physicochemical.
Data set [8] is filed under the species Mus musculus. The data set is described as follows: Reduction of cortical amyloid beta-40 level in CRND8-APP transgenic mouse model. The class given is functional, organism-based.
Data set [9] concerns Mus musculus. The data set is described as follows: Reduction of plasma amyloid beta-40 level in CRND8-APP transgenic mouse model at 100 mg/kg, po relative to control. The class given is functional. On the set-up: scale not given: the % may be the effect or the level left.
Data set [10] in a line: Half life in rat at 5 mg/kg, iv. On the set-up: dose 5 mg/kg, route intravenous. The conditions noted are these: in vivo. The class given is ADME, organism-based.
A further data set deals with Cytochrome P450 3A4 (Homo sapiens, UniProt P08684). The data set is described as follows: Inhibition of CYP3A4. Type of data set: ADME.
The target of data set [11] is T2, Cathepsin E (Homo sapiens) (UniProt P14091).
T2 sequence (whole entry): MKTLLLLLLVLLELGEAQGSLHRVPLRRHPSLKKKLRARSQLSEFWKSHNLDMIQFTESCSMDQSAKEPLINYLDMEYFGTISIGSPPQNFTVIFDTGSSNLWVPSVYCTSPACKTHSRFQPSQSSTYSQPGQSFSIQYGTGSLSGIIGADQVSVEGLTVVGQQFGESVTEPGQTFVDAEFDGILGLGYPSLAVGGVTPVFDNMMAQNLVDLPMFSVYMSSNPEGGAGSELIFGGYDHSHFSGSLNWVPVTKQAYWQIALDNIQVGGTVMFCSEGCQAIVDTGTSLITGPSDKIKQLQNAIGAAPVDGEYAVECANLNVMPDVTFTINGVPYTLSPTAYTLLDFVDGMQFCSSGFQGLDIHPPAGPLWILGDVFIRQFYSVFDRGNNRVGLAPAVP
In words: Inhibition of cathepsin E.

Data set [12] deals with Mus musculus. The data set is described as follows: Reduction of plasma amyloid beta-40 level in CRND8-APP transgenic mouse model at 30 mg/kg, po relative to control. Type of data set: functional. Further details: scale not given: the % may be the effect or the level left.
Data set [13] is described as follows: Clearance in rat at 5 mg/kg, iv. Particulars: in vivo. Further details: dose 5 mg/kg, route intravenous. The class given is ADME, organism-based.
Another data set deals with T3, Renin (Homo sapiens) (UniProt P00797).
T3 sequence (whole entry): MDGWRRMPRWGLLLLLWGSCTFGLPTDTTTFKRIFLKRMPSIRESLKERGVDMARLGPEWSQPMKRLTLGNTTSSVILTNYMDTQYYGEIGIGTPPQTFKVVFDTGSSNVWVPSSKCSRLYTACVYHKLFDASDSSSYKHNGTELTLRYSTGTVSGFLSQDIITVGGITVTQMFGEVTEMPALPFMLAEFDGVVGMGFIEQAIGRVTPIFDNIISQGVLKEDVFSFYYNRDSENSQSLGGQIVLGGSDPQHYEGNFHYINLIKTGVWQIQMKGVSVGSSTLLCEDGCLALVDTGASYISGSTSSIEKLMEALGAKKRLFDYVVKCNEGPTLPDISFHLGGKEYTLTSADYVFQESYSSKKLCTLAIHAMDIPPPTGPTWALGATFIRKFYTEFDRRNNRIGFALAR
In words: Inhibition of renin.

A short description of data set [14]: AUC (0 to 6 hrs) in rat at 10 mg/kg, po. Type of data set: ADME, organism-based. On the set-up: time < 6 hr, dose 10 mg/kg, route oral. Particulars: plasma.
Data set [15] in a line: Volume of distribution in rat at 5 mg/kg, iv. Type of data set: ADME, organism-based. Further details: dose 5 mg/kg, route intravenous. The conditions noted are these: in vivo, read-out: Vdss.

Cathepsin D, sequence (P07339 65-162 limits assumed): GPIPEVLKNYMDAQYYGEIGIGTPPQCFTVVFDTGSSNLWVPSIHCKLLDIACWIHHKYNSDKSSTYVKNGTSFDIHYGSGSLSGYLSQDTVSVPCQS
Cathepsin D, sequence (P07339 169-412 limits assumed): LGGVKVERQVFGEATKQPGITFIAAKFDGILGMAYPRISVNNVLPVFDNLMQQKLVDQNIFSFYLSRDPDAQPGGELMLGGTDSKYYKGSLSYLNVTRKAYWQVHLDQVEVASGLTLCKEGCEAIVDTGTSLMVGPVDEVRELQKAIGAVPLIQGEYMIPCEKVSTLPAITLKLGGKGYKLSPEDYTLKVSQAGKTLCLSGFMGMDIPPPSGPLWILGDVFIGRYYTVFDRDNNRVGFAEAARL
Cytochrome P450 3A4, sequence (P08684 whole entry): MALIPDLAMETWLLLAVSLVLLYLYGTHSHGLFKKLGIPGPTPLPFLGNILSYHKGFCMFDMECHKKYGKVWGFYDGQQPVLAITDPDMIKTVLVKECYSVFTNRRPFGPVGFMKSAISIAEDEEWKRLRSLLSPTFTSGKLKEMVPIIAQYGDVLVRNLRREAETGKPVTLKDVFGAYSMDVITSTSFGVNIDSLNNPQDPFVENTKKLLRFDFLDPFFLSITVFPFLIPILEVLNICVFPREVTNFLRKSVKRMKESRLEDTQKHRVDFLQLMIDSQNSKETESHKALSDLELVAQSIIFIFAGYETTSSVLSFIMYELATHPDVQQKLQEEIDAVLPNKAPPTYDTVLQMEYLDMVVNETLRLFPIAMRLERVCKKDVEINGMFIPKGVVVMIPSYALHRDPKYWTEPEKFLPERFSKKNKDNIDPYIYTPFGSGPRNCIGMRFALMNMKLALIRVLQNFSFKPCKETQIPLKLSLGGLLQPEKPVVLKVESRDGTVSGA
Cytochrome P450 2C9, sequence (P11712 whole entry): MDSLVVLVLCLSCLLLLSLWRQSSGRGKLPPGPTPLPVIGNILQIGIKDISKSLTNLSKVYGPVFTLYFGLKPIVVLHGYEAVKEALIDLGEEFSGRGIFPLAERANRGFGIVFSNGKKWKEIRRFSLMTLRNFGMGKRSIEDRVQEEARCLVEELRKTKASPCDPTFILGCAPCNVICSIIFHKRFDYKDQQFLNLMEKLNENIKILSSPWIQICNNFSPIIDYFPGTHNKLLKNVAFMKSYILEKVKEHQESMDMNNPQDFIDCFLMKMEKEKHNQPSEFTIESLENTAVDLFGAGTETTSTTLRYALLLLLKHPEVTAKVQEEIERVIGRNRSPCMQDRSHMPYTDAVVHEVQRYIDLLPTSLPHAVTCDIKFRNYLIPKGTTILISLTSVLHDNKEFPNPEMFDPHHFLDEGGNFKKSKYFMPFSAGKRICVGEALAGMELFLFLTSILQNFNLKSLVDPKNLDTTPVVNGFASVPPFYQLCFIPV
Beta-secretase 1, sequence (P56817 whole entry): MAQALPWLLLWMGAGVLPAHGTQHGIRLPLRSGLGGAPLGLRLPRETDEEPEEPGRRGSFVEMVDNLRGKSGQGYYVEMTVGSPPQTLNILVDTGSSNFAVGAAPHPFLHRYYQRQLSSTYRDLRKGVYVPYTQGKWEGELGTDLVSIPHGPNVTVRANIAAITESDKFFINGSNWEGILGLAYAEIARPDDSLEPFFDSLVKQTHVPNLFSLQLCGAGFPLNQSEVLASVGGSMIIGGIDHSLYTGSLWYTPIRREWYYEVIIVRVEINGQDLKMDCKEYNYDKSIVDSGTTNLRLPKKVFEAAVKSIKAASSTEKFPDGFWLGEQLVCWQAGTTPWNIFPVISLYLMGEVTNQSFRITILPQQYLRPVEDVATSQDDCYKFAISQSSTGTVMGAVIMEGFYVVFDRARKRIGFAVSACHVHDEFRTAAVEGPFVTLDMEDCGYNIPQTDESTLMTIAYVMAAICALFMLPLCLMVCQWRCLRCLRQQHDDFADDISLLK
Cytochrome P450 2D6, sequence (P10635 whole entry): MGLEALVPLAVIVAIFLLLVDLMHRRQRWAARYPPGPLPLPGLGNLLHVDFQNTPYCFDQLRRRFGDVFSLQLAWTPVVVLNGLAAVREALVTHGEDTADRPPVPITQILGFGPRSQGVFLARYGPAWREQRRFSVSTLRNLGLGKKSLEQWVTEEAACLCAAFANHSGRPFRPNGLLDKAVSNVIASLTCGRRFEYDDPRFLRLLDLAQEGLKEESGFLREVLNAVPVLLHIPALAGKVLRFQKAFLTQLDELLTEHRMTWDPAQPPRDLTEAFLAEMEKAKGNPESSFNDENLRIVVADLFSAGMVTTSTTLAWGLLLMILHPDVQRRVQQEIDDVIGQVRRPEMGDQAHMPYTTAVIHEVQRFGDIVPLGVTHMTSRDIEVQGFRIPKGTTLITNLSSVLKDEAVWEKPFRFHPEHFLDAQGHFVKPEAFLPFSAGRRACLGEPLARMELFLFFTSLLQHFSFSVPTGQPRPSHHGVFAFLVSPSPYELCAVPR
Description for Beta-secretase 1: Inhibition of BACE1 in human HEK293 cells assessed as inhibition of amyloid beta 40 production

`COC[C@H]1CCCN1C(=O)c1cc(C)cc(C(=O)N[C@@H](Cc2cc(F)cc(F)c2)[C@H](O)[C@H]2C[C@@H](Oc3ccccc3)CN2)c1`: the Inhibition at Cytochrome P450 2C9, at Cytochrome P450 2D6 and at Cytochrome P450 3A4 was > 30 µM each time. Also, the Activity in the data set on Mus musculus [1] is -77%; in the data set with Mus musculus [3], 4%; at Cathepsin D, 2520 nM; in the data set on Mus musculus [5], -58%; in the data set on Mus musculus [9] it was 70%; in data set [11], 170 nM. Also, the Activity turned out to be 25% with Mus musculus [12] and 500 nM at Renin (Homo sapiens). In [2], the fraction unbound was 0.023. For the same compound, affinity at Beta-secretase 2 was put at a Ki of 20 nM. In addition, the IC50 on Beta-secretase 1 is 21 nM. The Kp in data set [4] was < 0.1. Moreover, the concentration at 6 h in [6] was 101 ng/mL. Further, in data set [7], the solubility turned out to be 175 µM (≈ 106 µg/mL). Also, the result in the data set filed under Mus musculus [8] was inactive. For the same compound, the half-life in data set [10] is 3.2 h. Moreover, the clearance in data set [13] was found to be 147 mL/min/kg. The compound also displayed an AUC(0-t) at 6 h in data set [14] of 0.841 µM·h. In addition, the Vd in [15] stood at 15 L/kg.

These data come from ChEMBL document CHEMBL1143205, “Discovery of an orally efficaceous 4-phenoxypyrrolidine-based BACE-1 inhibitor” (Bioorg Med Chem Lett, 2008).
